Consider 14 compounds from US8921364B2, “Modulators of calcium release-activated calcium channel” (Rhizen Pharmaceuticals SA, priority 2009, dated 2014).

Experiment [1] has as its system female Balb/C mice. Nature of the experiment: Concanavalin (Con) A induced hepatitis in female Balb/C mice. Type of experiment: in vivo. The following applies: 10 mg/kg b. wt, oral, 1 hour prior to Con A, blood after 24 hours. As for the experimental part: Con A is often used to prepare experimental animals with high levels of cytotoxic T-lymphocytes, because these cells are involved in the development of viral infections in humans. In this model, animals were administered test compounds orally 1 hour prior to intravenous administration of Con A. Blood samples were collected after 24 hours for determination of Serum glutamic oxaloacetic transaminase (SGOT) and Serum glutamic pyruvic transaminase (SGPT) in Serum.

Experiment [2] deals with female Balb/C mice. As to the kind of experiment: TNCB induced contact hypersensitivity in female Balb/c mice. The following applies: 10 mg/kg b. wt, oral, 24 h after TNCB challenge. Type of experiment: in vivo. The procedure: Contact hypersensitivity is a simple in vivo assay of cell-mediated immune function. In this procedure, exposure of epidermal cells to exogenous haptens results in a delayed type hypersensitive reaction that can be measured and quantified. Briefly, 7% TNCB solution was applied to the abdominal region of 8 week old Balb/c mice. Ear thickness was measured 7 days after TNCB sensitization. Compounds were administered orally followed by an application of 1% TNCB to inside and outside of ear pinnae. Ear thickness was measured 24 h after TNCB challenge

For the next experiment, the system named is male Balb/c mice. Nature of the experiment: Foot paw delayed type hypersensitivity in male Balb/c mice. Type of experiment: in vivo. Conditions: 10 mg/kg, daily treatment day 0 to day 10. As for the experimental part:
DTH swelling responses can be used to follow the activity of immunosuppressive molecules and/or suppressor T cells in vivo. Intradermal antigen (methylated BSA) injections were given to mice (at base of tail) on day 0 and day 7. Compounds were administered once daily from day 0 to day 10 Methylated BSA was injected into the right hind footpad of animals on day 10. Weight difference induced by antigen was determined by weighing the right and left hind paws 24 h after injection of methylated BSA (day 11).

A further experiment has as its system guinea pigs. Nature of the experiment: OVA-induced asthma in guinea pigs. Type of experiment: in vivo. Conditions: 10 mg/kg b. wt, oral, 1 h before OVA challenge. As for the experimental part: Pulmonary eosinophilia and airway remodelling in conjunction with altered neural control of airway tone and airway epithelial desquamation contributes to Airway Hyper-responsiveness (AHR) in asthma. For determination of eosinophil reduction, animals were sensitized with OVA on d0, d7, and d14 followed by another round (0.1% w/v) through inhalation on d19 & d20. Compounds were administered orally 1 h before OVA challenge (0.3%). BAL fluid was collected on d22 for differential count and cytokine estimation. For determination of change in respiratory parameters, animals were subjected to whole body plethysmography immediately after ova challenge.

For the next experiment, the system named is male DBA/1 Ola HSD mice. Nature of the experiment: Collagen-induced arthritis in male DBA/1 Ola HSD mice. The format is in vivo. Conditions: 10 mg/kg b. wt, daily, po, qd. As for the experimental part:
Collagen induced arthritis in rodent models have been widely used to illustrate and understand the development of the disease besides serving as a surrogate for validation of therapeutic targets for human rheumatoid arthritis. Mice were anesthetized with Isoflurane and given 150 μl of Bovine Type II collagen in Freund's complete adjuvant injections (day 0 and day 21). Treatment was initiated on study day 0 and continued once daily, every day (po, qd). Starting on day 18, clinical scores were given daily for each of the paws (right front, left front, right rear, left rear) and continued till the day of sacrifice (day 34). Daily administration of the test compound (Example 69) at 10 mg/kg b. wt alleviated arthritic symptoms, disease progression, and incidence by 30% compared to the control animals.

A further experiment deals with CRAC channels (Homo sapiens (Human), UniProt Q96D31). Nature of the experiment: In-vitro CRAC channel inhibition assay in Jurkat cells (thapsigargin-induced calcium influx). Conditions: Jurkat cells, thapsigargin-induced calcium influx. The format is cell-based. As for the experimental part: Inhibition of CRAC channels was determined following thapsigargin (Sigma, Cat # T9033) induced endoplasmic calcium release in Jurkat cells. […] Cells were centrifuged and re-suspended in equal volumes ° f Ca^2+ and Mg^2+ free Hanks buffer and Fluo-8 NW dye (ABD Bioquest, Inc., Sunnyvale, Calif.) loading solution at 2×10^5 cells/100 μl/well in 96-well black plate. Plate is incubated at 37° C., 5% CO2 for 30 min followed by further 15 min incubation at room temperature. Test compounds (DMSO stocks diluted in Ca^2+ and Mg^2+ free Hanks buffer) at desired concentrations were added to the wells and incubated for […] Thapsigargin (1 μM final concentration) was added to the wells and incubated for 15 min to inhibit the Sarco-endoplasmic reticulum Ca^2+ ATPase pump thereby depleting endoplasmic calcium and raising cytosolic calcium concentrations. Store-operated calcium entry was initiated by adding extracellular Ca^2+ to a final concentration of 1.8 mM. Fluorescence was monitored over […] on a plate reader (BMG Labtech., Germany) with excitation at 485 nm and an emission wavelength at 520 nm. Data were analyzed using GraphPad Prism. IC50 for each compound was determined based on the percent inhibition of thapsigargin-induced calcium influx into cells.

For experiment [3], the target named is CRAC channels over the voltage operated channels (VOC) (Homo sapiens (Human), UniProt Q96D31). Conditions: Yonetoky et al.; cited from earlier work.

Structures can show the parent of a compound that is named as a salt.

Chain of CRAC channels (Q96D31 whole entry): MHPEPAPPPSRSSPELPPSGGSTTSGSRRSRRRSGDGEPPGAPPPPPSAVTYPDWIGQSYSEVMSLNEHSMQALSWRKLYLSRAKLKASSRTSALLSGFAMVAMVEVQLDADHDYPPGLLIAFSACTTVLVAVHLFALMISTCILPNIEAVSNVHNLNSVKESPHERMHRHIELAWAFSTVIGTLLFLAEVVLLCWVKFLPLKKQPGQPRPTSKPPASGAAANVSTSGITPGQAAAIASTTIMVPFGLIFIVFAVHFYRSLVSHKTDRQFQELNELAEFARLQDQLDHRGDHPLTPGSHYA
Chain of CRAC channels over the voltage operated channels (VOC) (Q96D31 whole entry): as above

Turning to `Cc1ncc(C(=O)Nc2ccc(-n3nc(C(F)(F)F)cc3C3CC3)cc2)c(C)n1` [Example 69, N-{4-[5-cyclopropyl-3-(trifluoromethyl)-1H-pyrazol-1-yl]phenyl}-2,4-dimethylpyrimidine-5-carboxamide], the “reduction in serum SGOT & SGPT” value in the experiment on female Balb/C mice [1] was over 85%. In the experiment on female Balb/C mice [2], the “reduction in ear inflammation” value was over 70%. In addition, the “reduction in antigen-induced paw inflammation” value with male Balb/c mice is on record as over 40%. In the experiment with guinea pigs, the “reduction in blood eosinophils” value is listed as over 70%. Further, the “respiration (whole body plethysmography)” value in the experiment on guinea pigs (plethysmography immediately after ova challenge) is on record as “improvement in respiration”. The “alleviation of arthritic symptoms, disease progression, and incidence compared to control animals” value with male DBA/1 Ola HSD mice amounted to 30%.
As usually defined, the IC50 is the concentration that gives 50% inhibition. In the case of `O=C(Nc1ccc(-n2nc(C(F)(F)F)cc2C2CC2)nc1)c1ccccc1F` [Example 106, N-(6-(5-cyclopropyl-3-(trifluoromethyl)-1H-pyrazol-1-yl)pyridin-3-yl)-2-fluorobenzamide], the IC50 on CRAC channels is 60 nM.
Still for that read-out and setting: the same measure for `O=C(Nc1ccc(-n2nc(C(F)(F)F)cc2C2CC2)nc1)c1cccc(F)c1F` [Example 107, N-{6-[5-cyclopropyl-3-(trifluoromethyl)-1H-pyrazol-1-yl]pyridin-3-yl}-2,3-difluorobenzamide]: 70.3 nM.
On the same count and under the same terms, to `O=C(Nc1ccc(-n2nc(C(F)(F)F)cc2C2CC2)nc1)c1c(F)cccc1F` [Example 108, N-{6-[5-cyclopropyl-3-(trifluoromethyl)-1H-pyrazol-1-yl]pyridin-3-yl}-2,6-difluorobenzamide] belongs 50.6 nM.
Still for that read-out and setting: the same measure for `O=C(Nc1ccc(-n2nc(C(F)(F)F)cc2C2CC2)nc1)c1cccnc1` [Example 111, N-{6-[5-cyclopropyl-3-(trifluoromethyl)-1H-pyrazol-1-yl]pyridin-3-yl}nicotinamide hydrochloride]: 47.2 nM.
For `Cc1ncccc1C(=O)Nc1ccc(-n2nc(C(F)(F)F)cc2C2CC2)nc1.Cl` [Example 112, N-{6-[5-cyclopropyl-3-(trifluoromethyl)-1H-pyrazol-1-yl]pyridin-3-yl}-2-methyl nicotinamide hydrochloride], the “% inhibition (1 uM)” value on CRAC channels was 36.44%.
On to `O=C(Nc1ccc(-n2nc(C(F)(F)F)cc2C2CC2)nc1)c1ccncc1` [Example 113, N-{6-[5-cyclopropyl-3-(trifluoromethyl)-1H-pyrazol-1-yl]pyridin-3-yl}isonicotinamide hydrochloride], for which the 50% inhibitory concentration (IC50) on CRAC channels was determined as 62.6 nM.
The same measure, in the same setting: to `O=C(Nc1ccc(-n2nc(C(F)(F)F)cc2C2CC2)nc1)c1ccncc1F` [Example 114, N-{6-[5-cyclopropyl-3-(trifluoromethyl)-1H-pyrazol-1-yl]pyridin-3-yl}-3-fluoroisonicotinamide] belongs 37.6 nM.
With `O=C(Nc1c(F)cccc1F)c1ccc(-n2nc(C(F)(F)F)cc2C2CC2)nc1` [Example 122, 6-[5-cyclopropyl-3-(trifluoromethyl)-1H-pyrazol-1-yl]-N-(2,6-difluorophenyl) nicotinamide], on CRAC channels, the concentration for half-maximal inhibition (IC50) amounted to 72.1 nM.
The same measure, in the same setting: to `O=C(Nc1cnc(-n2nc(C(F)(F)F)cc2C2CC2)nc1)c1c(F)cccc1F` [Example 124, N-{2-[5-cyclopropyl-3-(trifluoromethyl)-1H-pyrazol-1-yl]pyrimidin-5-yl}-2,6-difluorobenzamide] belongs 295 nM; to `Cc1ncsc1C(=O)Nc1ccc(-n2nc(C(F)(F)F)cc2CF)cc1` [Example 125, N-{4-[5-(fluoromethyl)-3-(trifluoromethyl)-1H-pyrazol-1-yl]phenyl}-4-methylthiazole-5-carboxamide], 373 nM; to `Cc1ncsc1C(=O)Nc1ccc(-n2nc(C(F)(F)F)cc2C(F)F)cc1` [Example 126, N-{4-[5-(difluoromethyl)-3-(trifluoromethyl)-1H-pyrazol-1-yl]phenyl}-4-methyl thiazole-5-carboxamide], 52.6 nM.
As for `Cc1nnsc1C(=O)Nc1ccc(-n2nc(C(F)(F)F)cc2C(F)(F)F)cc1` [YM-58483], the “selective index (CRAC channels over VOC)” value in experiment [3] is 31.
Consider “N-{4-[3-cyclopropyl-5-(difluoromethyl)-1H-pyrazol-1-yl]-3-fluorophenyl}-2,6-difluorobenzamide and N-{4-[5-cyclopropyl-3-(difluoromethyl)-1H-pyrazol-1-yl]-3-fluorophenyl}-2,6-difluorobenzamide [Example 135]”, for which, at CRAC channels, the “% inhibition (1 uM)” value stood at 100%.
